Data published in ChEMBL document CHEMBL3734705, “Synthesis and in vitro cytotoxicity of novel C-12 substituted-14-deoxy-andrographolide derivatives as potent anti-cancer agents” (2015).
Calls of active or inactive are those of the source. The rule behind the calls is not given here.

How the values were obtained:
Format in all cases: functional
[1] = test system: 786-0; test: Cytotoxicity against human 786-0 cells after 48 hrs by SRB assay; conditions: 786-0, 48 h
[2] = Cytotoxicity against human UO31 cells after 48 hrs by SRB assay; conditions: UO-31, 48 h
[3] = Cytotoxicity against human HOP62 cells after 48 hrs by SRB assay; conditions: HOP-62, 48 h
[4] = test system: M14; test: Cytotoxicity against human M14 cells after 48 hrs by SRB assay; conditions: M14, 48 h
[5] = Cytotoxicity against human OVCAR4 cells after 48 hrs by SRB assay; conditions: OVCAR-4, 48 h
[6] = test system: NCI-H322M; test: Cytotoxicity against human NCI-H322M cells after 48 hrs by SRB assay
[7] = test system: A549; test: Cytotoxicity against human A549 cells after 48 hrs by SRB assay; conditions: A549, 48 h
[8] = Cytotoxicity against human HCT116 cells after 48 hrs by SRB assay; conditions: HCT-116, 48 h
[9] = Cytotoxicity against human SW620 cells after 48 hrs by SRB assay; conditions: SW-620, 48 h
[10] = test system: MCF7; test: Cytotoxicity against human MCF7 cells after 48 hrs by SRB assay; conditions: MCF7, 48 h
[11] = test system: MDA-MB-435; test: Cytotoxicity against human MDA-MB-435 cells after 48 hrs by SRB assay; conditions: MDA-MB-435, 48 h
[12] = test system: K562; test: Cytotoxicity against human K562 cells after 48 hrs by SRB assay; conditions: K562, 48 h
[13] = Cytotoxicity against human OVCAR8 cells after 48 hrs by SRB assay; conditions: OVCAR-8, 48 h
[14] = test system: NCI-H460; test: Cytotoxicity against human NCI-H460 cells after 48 hrs by SRB assay; conditions: NCI-H460, 48 h
[15] = test system: A498; test: Cytotoxicity against human A498 cells after 48 hrs by SRB assay; conditions: A498, 48 h
[16] = Cytotoxicity against human OVCAR5 cells after 48 hrs by SRB assay; conditions: OVCAR-5, 48 h
[17] = Cytotoxicity against human HCT15 cells after 48 hrs by SRB assay; conditions: HCT-15, 48 h
[18] = Cytotoxicity against human SNB75 cells after 48 hrs by SRB assay; conditions: SNB-75, 48 h
[19] = test system: SK-MEL-5; test: Cytotoxicity against human SK-MEL-5 cells after 48 hrs by SRB assay; conditions: SK-MEL-5, 48 h
[20] = Cytotoxicity against human HL-60(TB) cells after 48 hrs by SRB assay; conditions: HL-60, 48 h
[21] = Cytotoxicity against human RPMI8226 cells after 48 hrs by SRB assay; conditions: RPMI-8226, 48 h
[22] = Cytotoxicity against human SNB19 cells after 48 hrs by SRB assay; conditions: SNB-19, 48 h
[23] = test system: NCI-H23; test: Cytotoxicity against human NCI-H23 cells after 48 hrs by SRB assay; conditions: NCI-H23, 48 h
[24] = Cytotoxicity against human RXF393 cells after 48 hrs by SRB assay; conditions: RXF 393, 48 h
[25] = Cytotoxicity against human COLO205 cells after 48 hrs by SRB assay; conditions: COLO 205, 48 h
[26] = test system: T47D; test: Cytotoxicity against human T47D cells after 48 hrs by SRB assay
[27] = Cytotoxicity against human HCC2998 cells after 48 hrs by SRB assay; conditions: HCC 2998, 48 h
[28] = (§1) Cytotoxicity against human OVCAR5 cells assessed as growth inhibition at 10 uM after 48 hrs by SRB assay; conditions: OVCAR-5, 48 h, read-out: GI
[29] = Cytotoxicity against human Caki1 cells after 48 hrs by SRB assay; conditions: CAKI-1, 48 h
[30] = Cytotoxicity against human IGROV1 cells after 48 hrs by SRB assay; conditions: IGROV-1, 48 h
[31] = Cytotoxicity against human NCI-ADR-RES cells after 48 hrs by SRB assay
[32] = test system: HT-29; test: Cytotoxicity against human HT-29 cells after 48 hrs by SRB assay; conditions: HT-29, 48 h
[33] = test system: MDA-MB-231; test: Cytotoxicity against human MDA-MB-231 cells after 48 hrs by SRB assay; conditions: MDA-MB-231, 48 h
[34] = Cytotoxicity against human PC3 cells after 48 hrs by SRB assay; conditions: PC-3, 48 h
[35] = test system: OVCAR-5; test: as §1
[36] = test system: SK-MEL-2; test: Cytotoxicity against human SK-MEL-2 cells assessed as growth level at 10 uM after 48 hrs by SRB assay
[37] = read-out: LC50 (the source's name)

C=C1CC[C@@H]2[C@](C)(COC(C)=O)[C@H](OC(C)=O)CC[C@@]2(C)[C@@H]1C/C=C1/C(=O)OC[C@H]1OC(C)=O
GI50 [1]: 2.02 µM
LC50 [1]: 9.29 µM
TGI [1]: 4.34 µM
GI50 [2]: 1.91 µM
LC50 (concentration killing 50% of cells) [2]: 7.92 µM
TGI [2]: 3.89 µM
GI50 [3]: 4.4 µM
LC50 [3]: > 100 µM
TGI [3]: 21.3 µM
GI50 [4]: 2.22 µM
LC50 [4]: 26.5 µM
TGI [4]: 6.48 µM
GI50 [5]: 3.57 µM
TGI [5]: 15.4 µM
CC50 [5, 37]: 41.8 µM
GI50 [6]: 16 µM
LC50 [6]: 55.3 µM
TGI [6]: 29.7 µM
GI50 [7]: 11.9 µM
LC50 [7]: 79.3 µM
TGI [7]: 30.7 µM
GI50 [8]: 1.45 µM
LC50 (concentration killing 50% of cells) [8]: 6.15 µM
TGI [8]: 2.98 µM
GI50 [9]: 2.29 µM
LC50 [9]: 41.1 µM
TGI [9]: 5.85 µM
GI50 [10]: 1.83 µM
LC50 (50% lethal concentration) [10]: > 100 µM
TGI [10]: 6.79 µM
GI50 [11]: 2.63 µM
LC50 (50% lethal concentration) [11]: 32.2 µM
TGI [11]: 10.1 µM
GI50 [12]: 2.63 µM
LC50 (50% lethal concentration) [12]: > 100 µM
TGI [12]: 32.1 µM
GI50 [13]: 3.38 µM
LC50 [13]: > 100 µM
TGI [13]: 22 µM
GI50 [14]: 18.6 µM
TGI [14]: 37.7 µM
CC50 [14, 37]: 76.2 µM
GI50 [15]: 14.4 µM
TGI [15]: 27.5 µM
CC50 [15, 37]: 52.6 µM
GI50 [16]: 1.93 µM
LC50 (concentration causing 50% net cell kill) [16]: 7.97 µM
TGI [16]: 3.92 µM
GI50 [17]: 1.58 µM
LC50 [17]: 65.5 µM
TGI [17]: 4.33 µM
GI50 [18]: 2.83 µM
TGI [18]: 14.2 µM
CC50 [18, 37]: 37.6 µM
GI50 [19]: 9.5 µM
LC50 (concentration killing 50% of cells) [19]: 51 µM
TGI [19]: 22.4 µM
GI50 [20]: 2.61 µM
TGI [20]: 6.78 µM
CC50 [20, 37]: 78.5 µM
GI50 [21]: 2.07 µM
LC50 [21]: > 100 µM
TGI [21]: 7.68 µM
GI50 [22]: 10.8 µM
LC50 (concentration killing 50% of cells) [22]: 55.6 µM
TGI [22]: 24.5 µM
GI50 [23]: 6.22 µM
LC50 [23]: 66.9 µM
TGI [23]: 23 µM
GI50 [24]: 1.95 µM
LC50 (concentration causing 50% net cell kill) [24]: 8.75 µM
TGI [24]: 4.13 µM
GI50 [25]: 3.37 µM
LC50 [25]: > 100 µM
TGI [25]: 11.4 µM
GI50 [26]: 2.86 µM
LC50 (concentration killing 50% of cells) [26]: > 100 µM
TGI [26]: 13.8 µM
GI50 [27]: 12.2 µM
LC50 [27]: 61.2 µM
TGI [27]: 27.3 µM
inhibition of growth at 10 µM [28]: 46.3%
GI50 [29]: 6.67 µM
LC50 [29]: 44.3 µM
TGI [29]: 19.6 µM
GI50 [30]: 2.41 µM
TGI [30]: 6.23 µM
CC50 [30, 37]: 32 µM
GI50 [31]: 4.22 µM
LC50 [31]: > 100 µM
TGI [31]: 19.8 µM
GI50 [32]: 2.58 µM
LC50 [32]: > 100 µM
GI50 [33]: 12.5 µM
LC50 [33]: 58.7 µM
TGI [33]: 27.1 µM
GI50 [34]: 6.07 µM
LC50 [34]: 48.9 µM
TGI [34]: 19.9 µM

C=C1CC[C@@H]2[C@](C)(COC(C)=O)[C@H](OC(C)=O)CC[C@@]2(C)[C@@H]1CC(NC1CCCC1)C1=CCOC1=O (some centres not stated)
growth inhibition (GI) [35]: inactive
Activity [36]: 85.11%

C=C1CC[C@@H]2[C@](C)(COC(C)=O)[C@H](OC(C)=O)CC[C@@]2(C)[C@@H]1CC(NCc1cccc(Cl)c1)C1=CCOC1=O (mixture of isomers)
inhibition of growth at 10 µM [28]: 0.31%
Activity [36]: 68.04%

C=C1CC[C@@H]2[C@](C)(COC(C)=O)[C@H](OC(C)=O)CC[C@@]2(C)[C@@H]1CC(NCc1ccc(F)cc1)C1=CCOC1=O (mixture of isomers)
inhibition of growth at 10 µM [28]: 1%
Activity [36]: 73.2%

C=C1CC[C@@H]2[C@](C)(COC(C)=O)[C@H](OC(C)=O)CC[C@@]2(C)[C@@H]1CC(NCc1ccccc1)C1=CCOC1=O (mixture of isomers)
growth inhibition (GI) [35]: inactive

C=C1CC[C@@H]2[C@](C)(CO)[C@H](O)CC[C@@]2(C)[C@@H]1C/C=C1/C(=O)OC[C@H]1O [ANDROGRAPHOLIDE]
growth inhibition (GI) [35]: inactive
